Data: US10167262B2, “Herbicidal substituted 3-arylpyrazoles” (FMC CORPORATION, priority 2014, dated 2019)

Tests used:
Test in all cases: Test C pre-/postemergence greenhouse test, plant response rating 0-100
Type in all cases: in vivo
[1] = test system: Italian ryegrass (Lolium multiflorum); details: Postemergence; for Plant response rating, Ryegrass, Italian: scale 0 to 100
Text: (§1) Seeds of plant species selected from blackgrass (Alopecurus myosuroides), Italian ryegrass (Lolium multiflorum), winter wheat (Triticum aestivum), galium (catchweed bedstraw, Galium aparine), corn (Zea mays), large (Lg) crabgrass (Digitaria sanguinalis), giant foxtail (Setaria faberii), johnsongrass (Sorghum halepense), lambsquarters (Chenopodium album), morningglory (Ipomoea coccinea), yellow nutsedge (Cyperus esculentus), pigweed (Amaranthus retroflexus), ragweed (common ragweed, Ambrosia elatior), soybean (Glycine max), barnyardgrass (Echinochloa crus-galli), oilseed rape (Brassica napus), waterhemp (common waterhemp, Amaranthus rudis), and velvetleaf (Abutilon theophrasti) were planted into a blend of loam soil and sand and treated preemergence with test chemicals formulated in a non-phytotoxic solvent mixture which included a surfactant.
(§2) At the same time, plants selected from these crop and weed species and also winter barley (Hordeum vulgare), bermudagrass (Cynodon dactylon), downy bromegrass (Bromus tectorum), canarygrass (Phalaris minor), cocklebur (common cocklebur, Xanthium strumarium), woolly cupgrass (Eriochloa villosa), deadnettle (henbit deadnettle, Lamium amplexicaule), green foxtail (Setaria viridis), goosegrass (Eleusine indica), surinam grass (Brachiaria decumbens), windgrass (Apera spica-venti), chickweed (common chickweed, Stellaria media), kochia (Kochia scoparia), and wild oat (Avena fatua), were planted in pots containing Redi-Earth® planting medium (Scotts Company, 14111 Scottslawn Road, Marysville, Ohio 43041) comprising spaghnum peat moss, vermiculite, wetting agent and starter nutrients and treated with postemergence applications of test chemicals formulated in the same manner. Plants ranged in height from 2 to 18 cm (1- to 4-leaf stage) for postemergence treatments. Treated plants and controls were maintained in a greenhouse for 13 to 15 days, after which time all species were compared to controls and visually evaluated. Plant response ratings, summarized in Table C, are based on a scale of 0 to 100 where 0 is no effect and 100 is complete control. A dash (-) response means no test result.

corn (Zea mays) = details: Postemergence; for Plant response rating, Corn: scale 0 to 100
Text: as §1, §2

[2] = test system: johnsongrass (Sorghum halepense); details: Postemergence; for Plant response rating, Johnsongrass: scale 0 to 100
Text: as §1, §2

[3] = test system: lambsquarters (Chenopodium album); details: Postemergence; for Plant response rating, Lambsquarters: scale 0 to 100
Text: as §1, §2

[4] = test system: large (Lg) crabgrass (Digitaria sanguinalis); details: Postemergence; for Plant response rating, Crabgrass, Large: scale 0 to 100
Text: as §1, §2

[5] = test system: yellow nutsedge (Cyperus esculentus); details: Postemergence; for Plant response rating, Nutsedge, Yellow: scale 0 to 100
Text: as §1, §2

soybean (Glycine max) = details: Postemergence; for Plant response rating, Soybean: scale 0 to 100
Text: as §1, §2

[6] = test system: pigweed (Amaranthus retroflexus); details: Postemergence; for Plant response rating, Pigweed: scale 0 to 100
Text: as §1, §2

[7] = test system: galium (catchweed bedstraw, Galium aparine); details: Postemergence; for Plant response rating, Galium: scale 0 to 100
Text: as §1, §2

[8] = test system: winter wheat (Triticum aestivum); details: Postemergence; for Plant response rating, Wheat: scale 0 to 100
Text: as §1, §2

[9] = test system: velvetleaf (Abutilon theophrasti); details: Postemergence; for Plant response rating, Velvetleaf: scale 0 to 100
Text: as §1, §2

[10] = test system: giant foxtail (Setaria faberii); details: Postemergence; for Plant response rating, Foxtail, Giant: scale 0 to 100
Text: as §1, §2

## Fc1ccccc1NN=C(c1ccccc1)c1c[nH]nc1-c1cc(Cl)cc(Cl)c1 [Compound 57]
[1]; 62 g ai/ha
  Plant response rating (0 to 100), Ryegrass, Italian: 0
[1]; 125 g ai/ha
  Plant response rating (0 to 100), Ryegrass, Italian: 0
[1]; 250 g ai/ha
  Plant response rating, Ryegrass, Italian: 0
Corn (Zea mays); 31 g ai/ha
  Plant response rating (0 to 100), Corn: 0
Corn (Zea mays); 62 g ai/ha
  Plant response rating (0 to 100), Corn: 0
Corn (Zea mays); 125 g ai/ha
  Plant response rating (0 to 100), Corn: 0
Corn (Zea mays); 250 g ai/ha
  Plant response rating, Corn: 0
[2]; 62 g ai/ha
  Plant response rating (0 to 100), Johnsongrass: 0
[2]; 125 g ai/ha
  Plant response rating (0 to 100), Johnsongrass: 0
[2]; 250 g ai/ha
  Plant response rating, Johnsongrass: 0
[3]; 62 g ai/ha
  Plant response rating (0 to 100), Lambsquarters: 60
[3]; 125 g ai/ha
  Plant response rating (0 to 100), Lambsquarters: 100
[4]; 31 g ai/ha
  Plant response rating (0 to 100), Crabgrass, Large: 0
[4]; 62 g ai/ha
  Plant response rating (0 to 100), Crabgrass, Large: 0
[4]; 125 g ai/ha
  Plant response rating (0 to 100), Crabgrass, Large: 0
[4]; 250 g ai/ha
  Plant response rating, Crabgrass, Large: 5
[5]; 62 g ai/ha
  Plant response rating (0 to 100), Nutsedge, Yellow: 0
[5]; 125 g ai/ha
  Plant response rating (0 to 100), Nutsedge, Yellow: 0
[5]; 250 g ai/ha
  Plant response rating, Nutsedge, Yellow: 5
Soybean (Glycine max); 62 g ai/ha
  Plant response rating (0 to 100), Soybean: 0
Soybean (Glycine max); 125 g ai/ha
  Plant response rating (0 to 100), Soybean: 0
Soybean (Glycine max); 250 g ai/ha
  Plant response rating, Soybean: 0
[6]; 62 g ai/ha
  Plant response rating (0 to 100), Pigweed: 70
[6]; 250 g ai/ha
  Plant response rating, Pigweed: 75
[7]; 31 g ai/ha
  Plant response rating (0 to 100), Galium: 0
[7]; 62 g ai/ha
  Plant response rating (0 to 100), Galium: 0
[7]; 125 g ai/ha
  Plant response rating (0 to 100), Galium: 0
[7]; 250 g ai/ha
  Plant response rating, Galium: 0
[8]; 62 g ai/ha
  Plant response rating (0 to 100), Wheat: 0
[8]; 125 g ai/ha
  Plant response rating (0 to 100), Wheat: 0
[8]; 250 g ai/ha
  Plant response rating, Wheat: 0
[9]; 62 g ai/ha
  Plant response rating (0 to 100), Velvetleaf: 70
[9]; 125 g ai/ha
  Plant response rating (0 to 100), Velvetleaf: 80
[9]; 250 g ai/ha
  Plant response rating, Velvetleaf: 80
[10]; 31 g ai/ha
  Plant response rating (0 to 100), Foxtail, Giant: 0
[10]; 62 g ai/ha
  Plant response rating (0 to 100), Foxtail, Giant: 0
[10]; 125 g ai/ha
  Plant response rating (0 to 100), Foxtail, Giant: 0
[10]; 250 g ai/ha
  Plant response rating, Foxtail, Giant: 5

## Clc1cc(Cl)cc(-c2n[nH]cc2C(=NNc2ccccc2Cl)c2ccccc2)c1 [Compound 66]
[1]; 62 g ai/ha
  Plant response rating (0 to 100), Ryegrass, Italian: 0
[1]; 125 g ai/ha
  Plant response rating (0 to 100), Ryegrass, Italian: 0
[1]; 250 g ai/ha
  Plant response rating, Ryegrass, Italian: 0
[1]; 500 g ai/ha
  Plant response rating, Ryegrass, Italian: 0
Corn (Zea mays); 62 g ai/ha
  Plant response rating (0 to 100), Corn: 0
Corn (Zea mays); 125 g ai/ha
  Plant response rating (0 to 100), Corn: 0
Corn (Zea mays); 250 g ai/ha
  Plant response rating, Corn: 5
Corn (Zea mays); 500 g ai/ha
  Plant response rating, Corn: 5
[2]; 62 g ai/ha
  Plant response rating (0 to 100), Johnsongrass: 0
[2]; 125 g ai/ha
  Plant response rating (0 to 100), Johnsongrass: 0
[2]; 250 g ai/ha
  Plant response rating, Johnsongrass: 0
[2]; 500 g ai/ha
  Plant response rating, Johnsongrass: 0
[3]; 62 g ai/ha
  Plant response rating (0 to 100), Lambsquarters: 40
[3]; 125 g ai/ha
  Plant response rating (0 to 100), Lambsquarters: 50
[3]; 250 g ai/ha
  Plant response rating, Lambsquarters: 90
[3]; 500 g ai/ha
  Plant response rating, Lambsquarters: 90
[4]; 62 g ai/ha
  Plant response rating (0 to 100), Crabgrass, Large: 0
[4]; 125 g ai/ha
  Plant response rating (0 to 100), Crabgrass, Large: 0
[4]; 250 g ai/ha
  Plant response rating, Crabgrass, Large: 0
[4]; 500 g ai/ha
  Plant response rating, Crabgrass, Large: 0
[5]; 62 g ai/ha
  Plant response rating (0 to 100), Nutsedge, Yellow: 0
[5]; 125 g ai/ha
  Plant response rating (0 to 100), Nutsedge, Yellow: 0
[5]; 250 g ai/ha
  Plant response rating, Nutsedge, Yellow: 0
[5]; 500 g ai/ha
  Plant response rating, Nutsedge, Yellow: 0
Soybean (Glycine max); 62 g ai/ha
  Plant response rating (0 to 100), Soybean: 0
Soybean (Glycine max); 125 g ai/ha
  Plant response rating (0 to 100), Soybean: 0
Soybean (Glycine max); 250 g ai/ha
  Plant response rating, Soybean: 0
Soybean (Glycine max); 500 g ai/ha
  Plant response rating, Soybean: 5
[6]; 62 g ai/ha
  Plant response rating (0 to 100), Pigweed: 55
[6]; 125 g ai/ha
  Plant response rating (0 to 100), Pigweed: 85
[6]; 250 g ai/ha
  Plant response rating, Pigweed: 95
[6]; 500 g ai/ha
  Plant response rating, Pigweed: 100
[7]; 62 g ai/ha
  Plant response rating (0 to 100), Galium: 0
[7]; 125 g ai/ha
  Plant response rating (0 to 100), Galium: 0
[7]; 250 g ai/ha
  Plant response rating, Galium: 0
[7]; 500 g ai/ha
  Plant response rating, Galium: 5
[8]; 62 g ai/ha
  Plant response rating (0 to 100), Wheat: 0
[8]; 125 g ai/ha
  Plant response rating (0 to 100), Wheat: 0
[8]; 250 g ai/ha
  Plant response rating, Wheat: 0
[8]; 500 g ai/ha
  Plant response rating, Wheat: 0
[9]; 62 g ai/ha
  Plant response rating (0 to 100), Velvetleaf: 55
[9]; 125 g ai/ha
  Plant response rating (0 to 100), Velvetleaf: 55
[9]; 250 g ai/ha
  Plant response rating, Velvetleaf: 80
[9]; 500 g ai/ha
  Plant response rating, Velvetleaf: 90
[10]; 62 g ai/ha
  Plant response rating (0 to 100), Foxtail, Giant: 0
[10]; 125 g ai/ha
  Plant response rating (0 to 100), Foxtail, Giant: 0
[10]; 250 g ai/ha
  Plant response rating, Foxtail, Giant: 0
[10]; 500 g ai/ha
  Plant response rating, Foxtail, Giant: 0
